For assay [1], the target named is T1, Thrombin from human plasma (Homo sapiens, UniProt P00734).
T1 construct: Thrombin from human plasma; purchased Sigma; host or cells: human plasma
The assay is described as follows: Enzyme amidolytic assay, thrombin inhibition (chromogenic substrate S-2238). Type of assay: biochemical. The conditions noted are these: for Ki: Ki Thrombin, S-2238 substrate, 25 °C, Cheng and Prusoff. How it is done:
(§1) The enzyme amidolytic method for determining inhibition was based on the spectrophotometric determination of absorbance of the product formed after amide bond cleavage of a chromogenic substrate in the presence of the enzyme. Ki, which is a quantitative measure of inhibitor potency, was determined from the kinetics of substrate hydrolysis with and without the addition of the inhibitor. Measurements (spectrophotometer, BioTek Synergy H4, BioTek Instruments, Winooski, VT, USA) were performed in 96-well microtiter plates with a final volume of 200 µL. Thrombin (Thrombin from human plasma, Sigma, Taufkirchen, Germany) was tested at a final concentration of 0.5 NIH E/mL with the substrate S-2238 (H-D-Phenylalanyl-L-pipecolyl-L-arginine-p-nitroaniline dihydrochloride, Chromogenix AB, Mondal, Sweden) at 20 and 40 mM final concentration, and factor Xa (Factor Xa from bovine plasma, Chromogenix) at the final concentration of 1 mBAEE E/mL with the substrate S-2222 (N-Benzoyl-L-isoleucyl-L-glutamyl-glycyl-L-arginine-p-nitroaniline hydrochloride and its methyl ester, Chromogenix) at 100 and 200 mM final concentrations. Trypsin (Trypsin from bovine pancreas, Sigma) was assayed at a final concentration of 0.5 nkat/mL using the substrate S-2222 (Chromogenix) at 50 and 100 mM final concentrations. Inhibitors were dissolved in DMSO (concentration of stock solutions, 10 mmol/L) and diluted with distilled water to concentrations from […]. Reaction rates were measured in the presence and the absence of the inhibitor. Then, 50 µL HBSA buffer, 50 µL solution of each inhibitor concentration (or of HBSA buffer in case of measurement without inhibitor), and 50 µL of enzyme solution were pipetted into the microtiter wells. The plate was incubated for 15 min at 25 °C and then […] of chromogenic substrate was added. Absorbance at 405 nm at 25 °C was measured every 10 s. Measurements were carried out in triplicate with three concentrations of the inhibitor and two concentrations of the substrate. For every combination of concentrations, Ki was calculated from the change of absorbance in the initial, linear part of the curve according to the method of Cheng and Prusoff and the final result was given as their average value.

For assay [2], the target named is T2, Factor Xa from bovine plasma (Bos taurus, UniProt P00743).
T2 construct: Factor Xa from bovine plasma; purchased Chromogenix; host or cells: bovine plasma
The assay is described as follows: Enzyme amidolytic assay, factor Xa inhibition (chromogenic substrate S-2222). The class given is biochemical. The conditions noted are these: for Ki: S-2222 substrate, 25 °C, Cheng and Prusoff. Here is the method:
as §1, with “Thrombin (Thrombin from human plasma, Sigma, Taufkirchen, Germany) was tested at a final concentration of 0.5 NIH E/mL with the substrate S-2238 (H-D-Phenylalanyl-L-pipecolyl-L-arginine-p-nitroaniline dihydrochloride, Chromogenix AB, Mondal, Sweden) at 20 and 40 mM final concentration, and factor Xa (Factor Xa from bovine plasma, Chromogenix) at the final concentration of 1 mBAEE E/mL with the substrate S-2222 (N-Benzoyl-L-isoleucyl-L-glutamyl-glycyl-L-arginine-p-nitroaniline hydrochloride and its methyl ester, Chromogenix) at 100 and 200 mM final concentrations. Trypsin (Trypsin from bovine pancreas, Sigma) was assayed at a final concentration of 0.5 nkat/mL using the substrate S-2222 (Chromogenix) at 50 and 100 mM final concentrations.” left out, “Absorbance at 405 nm at 25 °C was measured every 10 s.” left out

In assay [3] the target is T3, Trypsin from bovine pancreas (Bos taurus, UniProt P00760).
T3 construct: Trypsin from bovine pancreas; purchased Sigma; host or cells: bovine pancreas
The assay is described as follows: Enzyme amidolytic assay, trypsin inhibition (chromogenic substrate S-2222). The class given is biochemical. The conditions noted are these: for Ki: S-2222 substrate, 25 °C, Cheng and Prusoff. Here is the method:
as §1

For the next assay, the system named is Thrombin. The conditions noted are these: read-out: Thrombin Inhibition EC50; cited from earlier work.

Like-named read-outs stand apart in the source and are kept apart here. Square brackets hold non-standard residues; d marks the D form. Peptide text beside a SMILES is read from it. d(hPhe) = N[C@H](CCc1ccccc1)C(=O)O; dPhLac = O=C(O)[C@H](O)Cc1ccccc1

Results on 20 compounds are retold here after PMC6266488, “Synthesis and Evaluation of Spumigin Analogues Library with Thrombin Inhibitory Activity” (Marine Drugs, 2018).

T3 sequence (P00760 24-246): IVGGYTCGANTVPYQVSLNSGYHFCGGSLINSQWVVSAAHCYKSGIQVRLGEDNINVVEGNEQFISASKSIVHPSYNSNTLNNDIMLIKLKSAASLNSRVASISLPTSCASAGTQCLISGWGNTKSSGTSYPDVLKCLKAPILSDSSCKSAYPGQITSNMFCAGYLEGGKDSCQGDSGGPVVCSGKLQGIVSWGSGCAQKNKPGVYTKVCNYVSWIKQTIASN
T2 sequence (P00743 41-180): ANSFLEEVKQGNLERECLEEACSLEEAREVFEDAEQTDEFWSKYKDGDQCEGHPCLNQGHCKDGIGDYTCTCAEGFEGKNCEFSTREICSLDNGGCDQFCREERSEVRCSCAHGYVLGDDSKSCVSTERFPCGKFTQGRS
T2 sequence (P00743 234-492): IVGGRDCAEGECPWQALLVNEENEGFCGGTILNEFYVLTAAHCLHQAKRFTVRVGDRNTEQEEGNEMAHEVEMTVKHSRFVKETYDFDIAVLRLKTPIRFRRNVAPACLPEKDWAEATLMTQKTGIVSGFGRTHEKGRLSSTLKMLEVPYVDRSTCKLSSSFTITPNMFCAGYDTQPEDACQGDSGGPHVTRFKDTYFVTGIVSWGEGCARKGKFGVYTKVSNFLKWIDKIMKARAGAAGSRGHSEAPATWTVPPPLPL

As a reminder, the Ki is a measure of affinity in units of concentration, obtained from inhibition or displacement. On to `COC(=O)C(CCCNC(=N)N)NC(=O)C1Cc2ccccc2N1C(=O)C(CCc1ccccc1)NC(=O)C(O)Cc1ccc(O)cc1` (mixture of isomers) [Compound 11e], for which the values for the inhibition constant (Ki) in assay [1], in assay [2] (read-out: Ki Factor Xa) and in assay [3] were 30 ± 12 µM, 48 ± 5 µM and 3.9 ± 0.3 µM, respectively.

Take `COC(=O)C(CCCNC(=N)N)NC(=O)C1Cc2ccccc2N1C(=O)C(CCc1ccccc1)NC(=O)C(O)Cc1ccc(O)cc1` (mixture of isomers) [Compound 11k]: the Ki in assay [1] turned out to be 34 ± 10 µM; in assay [2] (read-out: Ki Factor Xa), 57 ± 8 µM; in assay [3], 72 ± 6 µM.

Regarding `N=C(N)NCCC[C@@H](CO)NC(=O)[C@@H]1Cc2ccccc2N1C(=O)[C@@H](CCc1ccccc1)NC(=O)[C@@H](O)Cc1ccc(O)cc1` (mixture of isomers) [Compound 11l], the Ki came out at 186 ± 48 µM in assay [1], 62 ± 4 µM in assay [2] (read-out: Ki Factor Xa) and 62 ± 3 µM in assay [3].

The EC50 is the concentration needed to bring the measured effect to its halfway point. Regarding `C[C@H]1C[C@@H](C(=O)N[C@H](CO)CCCN=C(N)N)N(C(=O)[C@@H](CCc2ccc(O)cc2)NC(=O)[C@H](O)Cc2ccc(O)cc2)C1` (racemic) [spumigin A (racemate), spumigin A], the EC50 with Thrombin is 7.5 µM.

On to `COC(=O)[C@H](CCCNC(=N)N)NC(=O)[C@H]1Cc2ccccc2N1C(=O)[C@@H](Cc1ccccc1)NC(=O)[C@H](O)Cc1ccccc1` (single isomer, unassigned) [Compound 11a], for which the results for the Ki in assay [1], in assay [2] (Ki Factor Xa) and in assay [3] were 52 ± 10 µM, 49 ± 4 µM and 7.9 ± 3.5 µM, respectively.

Consider `COC(=O)[C@H](CCCNC(=N)N)NC(=O)[C@H]1Cc2ccccc2N1C(=O)[C@@H](CCc1ccccc1)NC(=O)[C@H](O)Cc1ccccc1` (single isomer, unassigned) [Compound 11b], for which the Ki is 44 ± 7 µM in assay [1], 39 ± 6 µM in assay [2] (read-out: Ki Factor Xa) and 2.8 ± 0.4 µM in assay [3].

Consider `N=C(N)NCCC[C@@H](CO)NC(=O)[C@H]1Cc2ccccc2N1C(=O)[C@@H](Cc1ccccc1)NC(=O)[C@H](O)Cc1ccccc1` (single isomer, unassigned) [Compound 11c], for which the results for the Ki in assay [1], in assay [2] (read-out: Ki Factor Xa) and in assay [3] were 92 ± 20 µM, 54 ± 3 µM and 54 ± 1 µM, respectively.

Consider `N=C(N)NCCC[C@@H](CO)NC(=O)[C@H]1Cc2ccccc2N1C(=O)[C@@H](CCc1ccccc1)NC(=O)[C@H](O)Cc1ccccc1` (single isomer, unassigned) [Compound 11d], for which the Ki in assay [1] was 11 ± 4 µM; in assay [2] (Ki Factor Xa), 47 ± 6 µM; in assay [3], 29 ± 2 µM.

Turning to `COC(=O)[C@H](CCCNC(=N)N)NC(=O)[C@@H]1Cc2ccccc2N1C(=O)[C@@H](Cc1ccccc1)NC(=O)[C@H](O)Cc1ccccc1` (single isomer, unassigned) [Compound 11g], the Ki in assay [1] amounted to 50 ± 9 µM; in assay [2] (Ki Factor Xa) it was 47 ± 8 µM; in assay [3], 126 ± 14 µM.

Consider `COC(=O)[C@H](CCCNC(=N)N)NC(=O)[C@@H]1Cc2ccccc2N1C(=O)[C@@H](CCc1ccccc1)NC(=O)[C@H](O)Cc1ccccc1` (single isomer, unassigned) [Compound 11h], for which the Ki was 24 ± 8 µM in assay [1], 35 ± 9 µM in assay [2] (read-out: Ki Factor Xa) and 58 ± 17 µM in assay [3].

`N=C(N)NCCC[C@@H](CO)NC(=O)[C@@H]1Cc2ccccc2N1C(=O)[C@@H](Cc1ccccc1)NC(=O)[C@H](O)Cc1ccccc1` (single isomer, unassigned) [Compound 11i]: the Ki is 170 ± 58 µM in assay [1], 51 ± 4 µM in assay [2] (read-out: Ki Factor Xa) and 50 ± 3 µM in assay [3].

For `N=C(N)NCCC[C@@H](CO)NC(=O)[C@@H]1Cc2ccccc2N1C(=O)[C@@H](CCc1ccccc1)NC(=O)[C@H](O)Cc1ccccc1` (single isomer, unassigned) [Compound 11j], the Ki in assay [1] is 187 ± 79 µM; in assay [2] (Ki Factor Xa), 41 ± 9 µM; in assay [3] it was 693 ± 159 µM.

`N=C(N)NCCC[C@H](NC(=O)[C@H]1Cc2ccccc2N1C(=O)[C@@H](Cc1ccccc1)NC(=O)[C@H](O)Cc1ccccc1)C(=O)O` (single isomer, unassigned) [Compound 12g]: the Ki in assay [1] was 98 ± 26 µM; in assay [2] (read-out: Ki Factor Xa) it was 69 ± 1 µM; in assay [3] it was 0.28 ± 0.04 µM.

`COC(=O)[C@H](CCCNC(=N)N)NC(=O)[C@@H]1Cc2ccccc2N1C(=O)[C@@H](CC(C)C)NC(=O)[C@H](O)Cc1ccccc1` (single isomer, unassigned) [Compound 29a]: the Ki amounted to 5.6 ± 0.3 µM in assay [1], 30 ± 2 µM in assay [2] (read-out: Ki Factor Xa) and 4.8 ± 0.7 µM in assay [3].

For the compound `COC(=O)[C@H](CCCNC(=N)N)NC(=O)[C@H]1Cc2ccccc2N1C(=O)[C@@H](CC(C)C)NC(=O)[C@H](O)Cc1ccccc1` (single isomer, unassigned) [Compound 29b], the inhibition constant Ki amounted to 129 ± 13 µM in assay [1], 65 ± 2 µM in assay [2] (read-out: Ki Factor Xa) and 134 ± 42 µM in assay [3].

For `N=C(N)NCCCC(CO)NC(=O)C1Cc2ccccc2N1C(=O)C(CCc1ccccc1)NC(=O)C(O)Cc1ccc(O)cc1` (stereo not drawn) [Compound 11f], the Ki in assay [1] was found to be 20 ± 3 µM; in assay [2] (read-out: Ki Factor Xa), 76 ± 3 µM; in assay [3] it was 14 ± 1 µM.

Broadly, the IC50 is the concentration that gives 50% inhibition. Take `COC(=O)[C@@H](CCCNC(=N)N)NC(=O)[C@H]1CCCN1C(=O)[C@@H](CCc1ccccc1)NC(=O)[C@H](O)Cc1ccccc1` [Compound 21a, Methyl ((R)-2-((R)-2-hydroxy-3-phenylpropanamido)-4-phenylbutanoyl)-D-prolyl-D-argininate] (H-[dPhLac][d(hPhe)][dP][dR]-OMe): the IC50 in assay [1] is 33 µM; in assay [2] (in brackets in Ki Factor Xa column) it was 29 µM; in assay [3] (in brackets in Ki Trypsin column) it was 4.2 µM. For the same compound, the Ki in assay [1] was 3.8 ± 0.4 µM; in assay [2] (read-out: Ki Factor Xa) it was 18 ± 4 µM; in assay [3], 1.4 ± 0.2 µM.

On to `COC(=O)C(CCCNC(=N)N)NC(=O)C1CCCN1C(=O)C(CCc1ccccc1)NC(=O)C(O)Cc1ccc(O)cc1` [Compound 21b, Methyl ((R)-2-((R,S)-2-hydroxy-3-(4-hydroxyphenyl)propanamido)-4-phenylbutanoyl)-D-prolyl-D-argininate], for which the values for the Ki in assay [1], in assay [2] (read-out: Ki Factor Xa) and in assay [3] were 3.9 ± 0.4 µM, 29 ± 5 µM and 0.92 ± 0.08 µM, respectively.

As to `C[C@H]1C[C@@H](C(=O)N[C@H](CO)CCCN=C(N)N)N(C(=O)[C@@H](CCc2ccc(O)cc2)NC(=O)[C@H](O)Cc2ccc(O)cc2)C1` [spumigin A], the EC50 in the assay on Thrombin is 2.1 µM.

With `C[C@H]1C[C@@H](C(=O)N(C)[C@H](CCCCN)C(=O)O)N(C(=O)[C@@H](CCc2ccc(O)cc2)NC(=O)[C@H](O)Cc2ccc(O)cc2)C1` [spumigin J], in the assay on Thrombin, the EC50 was 4.9 µM.
